Results as given in US10633407B2, “14-membered ketolides and methods of their preparation and use” (President and Fellows of Harvard College, priority 2014, dated 2020).
≈ marks a conversion by molar mass, not a printed value. Like-named read-outs stand apart in the source and are kept apart here.

Tests used:
Experiment in all cases: CLSI broth dilution MIC determination
Format in all cases: cell-based
[1] = tested on: P. aeruginosa ATCC 27853
[2] = tested on: K. pneumoniae ATCC 10031
[3] = tested on: A. baumannii IMP-4
[4] = tested on: S. pyogenes Macrolide-resistant; details: S. pyogenes Macrolide-resistant; Gram-positive
[5] = tested on: S. aureus erm A genotype
How it was run: (§1)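 The lowest inhibitory concentration was found by broth dilution done to CLSI standards. Resistance genotypes on the panel can be constitutive or inducible, and azithromycin and solithromycin accompany many tests as reference macrolides.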

[6] = tested on: S. pneumoniae erm B + mef A genotype
How it was run: as §1

[7] = tested on: E. coli TEM-1
How it was run: as §1

[8] = tested on: S. pneumoniae mef A genotype (second strain so labelled)
How it was run: as §1

[9] = tested on: E. coli NDM-1
How it was run: as §1

[10] = tested on: E. coli ATCC 25922
How it was run: as §1

[11] = tested on: S. pneumoniae ATCC 49619; details: S. pneumoniae ATCC 49619; Gram-positive
How it was run: as §1

[12] = tested on: S. aureus MRSA: USA100
How it was run: as §1

[13] = tested on: H. influenzae ATCC49247
How it was run: as §1

[14] = tested on: E. coli CTX-M-14
How it was run: as §1

[15] = tested on: S. aureus USA600, GISA
How it was run: as §1

[16] = tested on: S. aureus ATCC 29213
How it was run: as §1

[17] = tested on: S. aureus MRSA: USA300
How it was run: as §1

[18] = tested on: K. pneumoniae TEM-10
[19] = tested on: S. pneumoniae erm B + tet(M,O) genotype; details: Streptococcus pneumoniae
How it was run: as §1

[20] = tested on: P. aeruginosa HPA101-1477
[21] = tested on: A. baumannii ATCC 19606
[22] = tested on: K. pneumoniae SHV-12
[23] = tested on: A. baumannii chromosomal class C
[24] = tested on: E. faecalis Vancomycin-resistant; details: E. faecalis Vancomycin-resistant; Gram-positive
[25] = tested on: A. baumannii imipenem-resistant
[26] = tested on: K. pneumoniae KPC-2
[27] = tested on: P. aeruginosa MP-8 PAO1:mex (mex-oprM-deletion); details: Pseudomonas aeruginosa, PAO1
[28] = tested on: E. faecalis ATCC 29212
[29] = tested on: H. influenzae Erythro >4, Azithro 1
Description: MIC data was collected for the novel macrolides that this platform has produced against over 21 unique strains of B. subtilis, E. coli, S. aureus, S. pneumoniae, and H. influenzae, including several multidrug-resistant strains, with a special focus on macrolide resistant mechanisms (vide supra). […] CLSI standard procedures for broth dilution MIC determination were used. […] These genotypes can be constitutive or inducible.

[30] = tested on: S. pyogenes ATCC 19615; details: S. pyogenes ATCC 19615; Gram-positive
[31] = Haemophilus influenzae, read-out: MIC
[32] = Acinetobacter baumannii, read-out: MIC

In the case of `CC[C@H]1OC(=O)[C@@](C)(F)C(=O)[C@H](C)[C@@H](OC2OC(C)CC(N(C)C)C2O)[C@](C)(OC)C[C@@H](C)C(=O)[C@H](C)[C@H]2N(CCCCn3cc(-c4cccc(N)c4)nn3)C(=O)O[C@]12C` (some centres unmarked) [Solithro, solithromycin, reference compound], the MIC ([1]; P. aeruginosa ATCC 27853, Gram-negative) was over 32 µg/mL, the MIC ([1]; Pseudomonas aeruginosa, ATCC27853, P. aeruginosa ATCC 27853 (MP-3), read-out: MIC) was over 32 µg/mL and the MIC ([2]; K. pneumoniae ATCC 10031 (MP-14)) was 4 µg/mL (≈ 4.73 µM). For the same compound, the MIC ([2]; K. pneumoniae ATCC 10031, Gram-negative) was 8 µg/mL (≈ 9.47 µM), the MIC ([2]; Klebsiella pneumoniae, ATCC10031, K. pneumoniae ATCC 10031 (MP-14), read-out: MIC) was 8 µg/mL (≈ 9.47 µM) and the MIC ([3]; Acinetobacter baumannii, IMP4, read-out: MIC) was over 32 µg/mL. For the same compound, the MIC ([3]; Gram-negative) was over 32 µg/mL, the MIC [4] was 0.0625 µg/mL (≈ 0.074 µM) and the MIC ([5]; S. aureus erm A genotype, Gram-positive) was over 32 µg/mL. The MIC ([5]; Staphylococcus aureus, S. aureus erm A genotype (MP-620 UNT-146), read-out: MIC) was over 32 µg/mL, the MIC ([6]; S. pneumoniae erm B + mef A genotype, Gram-positive) was 0.25 µg/mL and the MIC ([6]; Streptococcus pneumoniae) was 0.25 µg/mL (≈ 0.296 µM). It also gave an MIC ([7]; E. coli TEM-1, Gram-negative) of 32 µg/mL (≈ 37.9 µM), an MIC ([7]; Escherichia coli, TEM1) of 32 µg/mL (≈ 37.9 µM) and an MIC ([8]; Gram-positive) of 0.125 µg/mL (≈ 0.148 µM). The MIC ([8]; Streptococcus pneumoniae, second strain (MP-627 UNT-039)) was 0.125 µg/mL (≈ 0.148 µM), the MIC ([8]; Streptococcus pneumoniae, second strain (MP-627 UNT-039), read-out: MIC) was under 0.015 µg/mL and the MIC ([9]; Escherichia coli, NDM1, read-out: MIC) was over 32 µg/mL. The MIC ([9]; Gram-negative) was over 32 µg/mL, the MIC ([10]; E. coli ATCC 25922 (MP-4)) was 16 µg/mL (≈ 18.9 µM) and the MIC ([10]; E. coli ATCC 25922, Gram-negative) was 32 µg/mL (≈ 37.9 µM). It also gave an MIC ([10]; Escherichia coli, ATCC25922, E. coli ATCC 25922 (MP-4), read-out: MIC) of 32 µg/mL (≈ 37.9 µM), an MIC [11] of under 0.0312 µg/mL and an MIC ([12]; S. aureus MRSA: USA100, Gram-positive) of over 32 µg/mL. It also gave an MIC ([12]; Staphylococcus aureus, S. aureus MRSA: USA100 (MP-618 UNT-096), read-out: MIC) of over 32 µg/mL, an MIC ([13]; Gram-negative) of 4 µg/mL (≈ 4.73 µM) and an MIC [13, 31] of 4 µg/mL (≈ 4.73 µM). It also gave an MIC ([14]; Escherichia coli, CTXM14, read-out: MIC) of over 32 µg/mL, an MIC ([14]; Gram-negative) of over 32 µg/mL and an MIC ([15]; S. aureus USA600, GISA, Gram-positive) of over 32 µg/mL. It also gave an MIC ([15]; Staphylococcus aureus, S. aureus USA600, GISA (MP-619 UNT-120), read-out: MIC) of over 32 µg/mL, an MIC ([16]; S. aureus ATCC 29213, Gram-positive) of 0.125 µg/mL (≈ 0.148 µM) and an MIC ([16]; Staphylococcus aureus, ATCC29213) of 0.125 µg/mL (≈ 0.148 µM). For the same compound, the MIC ([17]; S. aureus MRSA: USA300, Gram-positive) was 1 µg/mL (≈ 1.18 µM), the MIC ([17]; Staphylococcus aureus, S. aureus MRSA: USA300 (MP-549, msr(a))) was 0.125 µg/mL (≈ 0.148 µM) and the MIC ([17]; Staphylococcus aureus, S. aureus MRSA: USA300 (MP-549, msr(a)), read-out: MIC) was 1 µg/mL (≈ 1.18 µM). For the same compound, the MIC ([18]; Gram-negative) was over 32 µg/mL, the MIC ([18]; Klebsiella pneumoniae, TEM10, read-out: MIC) was over 32 µg/mL and the MIC [19] was under 0.0312 µg/mL. It also gave an MIC ([20]; Gram-negative) of over 32 µg/mL, an MIC ([20]; Pseudomonas aeruginosa, HPA1011477, read-out: MIC) of over 32 µg/mL and an MIC ([21]; A. baumannii ATCC 19606, Gram-negative) of 8 µg/mL (≈ 9.47 µM). For the same compound, the MIC ([21]; Acinetobacter baumannii, ATCC19606, A. baumannii ATCC 19606 (MP-15), read-out: MIC) was 8 µg/mL (≈ 9.47 µM), the MIC ([22]; Gram-negative) was over 32 µg/mL and the MIC ([22]; Klebsiella pneumoniae, SHV12, read-out: MIC) was over 32 µg/mL. The MIC [23, 32] was 8 µg/mL (≈ 9.47 µM), the MIC ([23]; Gram-negative) was 8 µg/mL (≈ 9.47 µM) and the MIC [24] was 32 µg/mL (≈ 37.9 µM). For the same compound, the MIC [25, 32] was 4 µg/mL (≈ 4.73 µM), the MIC ([25]; Gram-negative) was 4 µg/mL (≈ 4.73 µM) and the MIC ([26]; Gram-negative) was over 32 µg/mL. It also gave an MIC ([26]; Klebsiella pneumoniae, KPC2, read-out: MIC) of over 32 µg/mL, an MIC [27] of 8 µg/mL (≈ 9.47 µM) and an MIC ([28]; E. faecalis ATCC 29212 (MP-24)) of 0.03 µg/mL (≈ 0.0355 µM). For the same compound, the MIC ([28]; E. faecalis ATCC 29212, Gram-positive) was under 0.0312 µg/mL, the MIC ([28]; Enterococcus faecalis, ATCC29212, E. faecalis ATCC 29212 (MP-24), read-out: MIC) was under 0.0312 µg/mL and the MIC ([29]; H. influenzae Erythro >4, Azithro 1, Gram-negative) was 2 µg/mL (≈ 2.37 µM). For the same compound, the MIC [29, 31] was 2 µg/mL (≈ 2.37 µM) and the MIC [30] was under 0.0312 µg/mL.
